# Measured values published in ChEMBL document CHEMBL1629541, “Synthesis and structure-activity relationships of aza- and diazabiphenyl analogues of the antitubercular drug (6S)-2-nitro-6-{[4-(trifluoromethoxy)benzyl]oxy}-6,7-dihydro-5H-imidazo[2,1-b][1,3]oxazine (PA-824)” (J Med Chem, 2010).
# Experiments:
# [1] = AUC (0-infinity) in CD1 mouse plasma at 40 mg/kg, po administered as single dose; assay type: ADME, organism-based; set-up: time infinity, dose 40 mg/kg, route oral
# [2] = AUClast in Sprague-Dawley rat at 1 mg/kg, iv administered as single dose; assay type: ADME, organism-based; set-up: time 0 - last, dose 1 mg/kg, route intravenous; settings: plasma
# [3] = test system: Mycobacterium tuberculosis; assay: microbe, parasite or virus in culture; settings: H37Rv
# [4] = Cmax in CD1 mouse lung at 40 mg/kg, po administered as single dose; assay type: ADME, organism-based; set-up: dose 40 mg/kg, route oral
# [5] = Half life in Sprague-Dawley rat at 1 mg/kg, iv administered as single dose; assay type: ADME, organism-based; set-up: dose 1 mg/kg, route intravenous; settings: in vivo
# [6] = Cmax in Sprague-Dawley rat at 20 mg/kg, po administered as single dose; assay type: ADME, organism-based; set-up: dose 20 mg/kg, route oral; settings: in vivo
# physchem [7] = settings: water, pH 1
# Description: Solubility of the compound in water at pH 1.0 by HPLC
# [8] = Cmax in CD1 mouse plasma at 40 mg/kg, po administered as single dose; assay type: ADME, organism-based; set-up: dose 40 mg/kg, route oral
# [9] = AUClast in Sprague-Dawley rat at 20 mg/kg, po administered as single dose; assay type: ADME, organism-based; set-up: time 0 - last, dose 20 mg/kg, route oral; settings: plasma
# [10] = Thermodynamic solubility in aqueous buffer at pH 7.4 at 20 degC by HPLC; assay type: physicochemical
# in vitro [11] = settings: human, liver microsomes
# Description: Metabolic stability in human liver microsomes assessed as compound remaining after 1 hr
# [12] = Thermodynamic solubility in aqueous buffer at pH 1 at 20 degC by HPLC; assay type: physicochemical; settings: for solubility thermodynamic: aqueous buffer
# [13] = AUC (0-infinity) in CD1 mouse lung at 40 mg/kg, po administered as single dose; assay type: ADME, organism-based; set-up: time infinity, dose 40 mg/kg, route oral
# [14] = Half life in CD1 mouse plasma at 40 mg/kg, po administered as single dose; assay type: ADME, organism-based; set-up: dose 40 mg/kg, route oral
# [15] = test system: Mycobacterium tuberculosis; assay: microbe, parasite or virus in culture; settings: H37Rv; remark: listed apart in the source
# Description: Antitubercular activity against Mycobacterium tuberculosis H37Rv by LORA method
# [16] = Ratio of AUC (0-infinity) in lung to AUC (0-infinity) in plasma of CD1 mouse at 40 mg/kg, po administered as single dose; assay type: ADME, organism-based; set-up: dose 40 mg/kg, route oral
# in vitro [17] = settings: CD1, mouse, liver microsomes
# Description: Metabolic stability in CD1 mouse liver microsomes assessed as compound remaining after 1 hr
# [18] = Tmax in Sprague-Dawley rat at 20 mg/kg, po administered as single dose; assay type: ADME, organism-based; set-up: dose 20 mg/kg, route oral; settings: in vivo
# [19] = Cmax in Sprague-Dawley rat at 1 mg/kg, iv administered as single dose; assay type: ADME, organism-based; set-up: dose 1 mg/kg, route intravenous; settings: in vivo
# physchem [20] = settings: water, pH 7
# Description: Solubility of the compound in water at pH 7.0 by HPLC
# [21] = Tmax in Sprague-Dawley rat at 1 mg/kg, iv administered as single dose; assay type: ADME, organism-based; set-up: dose 1 mg/kg, route intravenous; settings: in vivo
# [22] = Oral bioavailability in Sprague-Dawley rat at 20 mg/kg, po administered as single dose; assay type: ADME, organism-based; settings: in vivo
# [23] = Half life in CD1 mouse lung at 40 mg/kg, po administered as single dose; assay type: ADME, organism-based; set-up: dose 40 mg/kg, route oral
# [24] = AUClast in Sprague-Dawley rat at 5 mg/kg, iv administered as single dose; assay type: ADME, organism-based; set-up: time 0 - last, dose 5 mg/kg, route intravenous; settings: plasma
# [25] = Cmax in Sprague-Dawley rat at 5 mg/kg, iv administered as single dose; assay type: ADME, organism-based; set-up: dose 5 mg/kg, route intravenous; settings: in vivo
# [26] = Half life in Sprague-Dawley rat at 5 mg/kg, iv administered as single dose; assay type: ADME, organism-based; set-up: dose 5 mg/kg, route intravenous; settings: in vivo
# [27] = Tmax in Sprague-Dawley rat at 5 mg/kg, iv administered as single dose; assay type: ADME, organism-based; set-up: dose 5 mg/kg, route intravenous; settings: in vivo
# [28] = Metabolic stability in human liver microsomes after 1 hr at 37 degC; assay type: ADME, Microsome; settings: read-out: Stability
Structure (SMILES),AUC(0-inf) [1] [µg·h/mL],MIC [3] [µM],Cmax [4] [ng/mL],Cmax [6] [ng/mL],solubility (physchem [7]) [µg/mL],Cmax [8] [ng/mL],AUC(0-t) [9] [ng·h/mL],solubility thermodynamic [10] [µg/mL],remaining at 1 h (in vitro [11]) [%],solubility thermodynamic [12] [µg/mL],AUC(0-inf) [13] [µg·h/mL],half-life [14] [min],MIC [15] [µM],Kp [16],remaining at 1 h (in vitro [17]) [%],Tmax [18] [h],solubility (physchem [20]) [µg/mL],bioavailability [22] [%],half-life [23] [min],AUC(0-t) [24] [ng·h/mL],other results
O=[N+]([O-])c1cn2c(n1)OC[C@@H](OCc1ccc(-c3ccc(OC(F)(F)F)c(F)c3)nc1)C2,175,0.025,12000,7200,71,7000,129000,0.32,100,34,251,840,0.93,1.4,90,6,3,93,720,,AUC(0-t) [2]: 6970 ng·h/mL; half-life [5]: 1980 min; Cmax [19]: 530 ng/mL; Tmax [21]: 4.98 min
O=[N+]([O-])c1cn2c(n1)OC[C@@H](OCc1ccc(-c3ccc(OC(F)(F)F)cc3)nc1)C2 [TBA-354],296,0.05,18000,8100,,12000,30100,< 0.1,83,,81,1440,0.54,,87,5,,62,132,12100,Cmax [25]: 3900 ng/mL; half-life [26]: > 360 min; solubility ([12]; buffer): 45 µg/mL; Tmax [27]: 4.98 min
O=[N+]([O-])c1cn2c(n1)OC[C@@H](OCc1cnc(-c3ccc(OC(F)(F)F)cc3)cn1)C2,152,0.023,23000,7000,2.8,9600,29400,0.44,98,0.44,> 324,432,1,,,5,,45,> 480,16300,Cmax [25]: 3900 ng/mL; half-life [26]: 1440 min; Tmax [27]: 10 min
O=[N+]([O-])c1cn2c(n1)OC[C@@H](OCc1ccc(-c3ccc(OC(F)(F)F)c(F)c3)cn1)C2,137,0.05,9100,,334,7600,,1.5,97,67,155,504,1.3,1.1,86,,30,,474,,
O=[N+]([O-])c1cn2c(n1)OC[C@@H](OCc1ccc(-c3ccc(C(F)(F)F)nc3)cc1)C2,217,0.03,373000,,11,14000,,0.17,86,0.38,414,,2.1,1.9,,,1,,546,,
O=[N+]([O-])c1cn2c(n1)OC[C@@H](OCc1ccc(-c3ccc(OC(F)(F)F)cc3)nn1)C2,52,0.075,7000,,31,3600,,3,94,10,94,174,1.7,,92,,,,204,,
COc1ccc(-c2ccc(CO[C@@H]3COc4nc([N+](=O)[O-])cn4C3)cc2)cn1,,0.045,,,,,,,40,,,,0.61,,6,,4.4,,,,remaining at 1 h [28]: > 50%
O=[N+]([O-])c1cn2c(n1)OC[C@@H](OCc1cnc(-c3ccc(OC(F)(F)F)cc3)nc1)C2,43,0.027,4000,,3,1200,,1.2,96,1.5,131,1380,1.8,,87,,,,1080,,
O=[N+]([O-])c1cn2c(n1)OC[C@@H](OCc1ccc(-c3ccc(C(F)(F)F)cn3)cc1)C2,20,0.06,34000,,5.1,1100,,0.42,93,0.84,67,528,1,3.4,90,,0.2,,600,,
O=[N+]([O-])c1cn2c(n1)OC[C@@H](OCc1ccc(-c3ccc(OC(F)(F)F)cc3)cn1)C2,418,0.065,35000,16000,,26000,66700,,,,427,324,3.7,,,6,,46,492,35900,Cmax [25]: 8700 ng/mL; half-life [26]: > 360 min; Tmax [27]: 4.98 min
